# Key:
# Assay type in all cases: in vivo
# [1] = test system: oat, wild (wild oat, Avena fatua); test: Test A preemergence soil spray, visual injury rating 0-100; details: 10 days, 0 = no effect, 100 = complete control
# Outline: (§1)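 Greenhouse test: loam/sand pots received a surfactant-containing formulation, as a preemergence directed soil spray or a postemergence spray on young plants. Injury was judged visually at day 10 relative to untreated controls.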
# [2] = test system: ragweed (common ragweed, Ambrosia artemisiifolia); test: as above; details: 10 days, 0 = no effect, 100 = complete control
# Outline: as §1
# soybean (Glycine max) [3] = test: as above; details: 10 days, 0 = no effect, 100 = complete control
# Outline: as §1
# [4] = test system: blackgrass (Alopecurus myosuroides); test: as above; details: 10 days, 0 = no effect, 100 = complete control
# Outline: as §1
# [5] = test system: ryegrass, Italian (italian ryegrass, Lolium multiflorum); test: as above; details: 10 days, 0 = no effect, 100 = complete control
# Outline: as §1
# [6] = test system: palmer (palmer amaranth, palmer pigweed, Amaranthus palmeri); test: as above; details: 10 days, 0 = no effect, 100 = complete control
# Outline: as §1
# [7] = test system: wheat (Triticum aestivum); test: as above; details: 10 days, 0 = no effect, 100 = complete control
# Outline: as §1
# kochia (Bassia scoparia) [8] = test: as above; details: 10 days, 0 = no effect, 100 = complete control
# Outline: as §1
# [9] = test system: barnyardgrass (Echinochloa crus-galli); test: as above; details: 10 days, 0 = no effect, 100 = complete control
# Outline: as §1
# corn (Zea mays) [10] = test: as above; details: 10 days, 0 = no effect, 100 = complete control
# Outline: as §1
# [11] = test system: green foxtail (Setaria viridis); test: as above; details: 10 days, 0 = no effect, 100 = complete control
# Outline: as §1
# [12] = test system: ducksalad (Heteranthera limosa); test: Test B flooded paddy test, visual plant response rating 0-100; details: 250 g ai/ha, Flood, applied to paddy water, evaluated after 13 days
# Outline: (§2)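 Plants were grown to the 2-leaf stage, then pots were flooded to 3 cm above the soil and test compounds were applied directly into the paddy water. Water depth was held there throughout; after 13 days in a greenhouse, injury was scored visually against untreated controls.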
# rice (Oryza sativa) = test: as above; details: 250 g ai/ha, Flood, applied to paddy water, evaluated after 13 days
# Outline: as §2
# [13] = test system: barnyardgrass (Echinochloa crusgalli); test: as above; details: 250 g ai/ha, Flood, applied to paddy water, evaluated after 13 days
# Outline: as §2
# [14] = test system: sedge, umbrella (small-flower umbrella sedge, Cyperus difformis); test: as above; details: 250 g ai/ha, Flood, applied to paddy water, evaluated after 13 days
# Outline: as §2
# [15] = test system: oat, wild (wild oat, Avena fatua); test: Test A postemergence application, visual injury rating 0-100; details: 10 days
# Outline: as §1
# [16] = test system: ragweed (common ragweed, Ambrosia artemisiifolia); test: as above; details: 10 days
# Outline: as §1
# soybean (Glycine max) [17] = test: as above; details: 10 days
# Outline: as §1
# [18] = test system: horseweed (Erigeron canadensis); test: as above; details: 10 days
# Outline: as §1
# [19] = test system: blackgrass (Alopecurus myosuroides); test: as above; details: 10 days
# Outline: as §1
# [20] = test system: ryegrass, Italian (italian ryegrass, Lolium multiflorum); test: as above; details: 10 days
# Outline: as §1
# [21] = test system: palmer (palmer amaranth, palmer pigweed, Amaranthus palmeri); test: as above; details: 10 days
# Outline: as §1
# [22] = test system: wheat (Triticum aestivum); test: as above; details: 10 days
# Outline: as §1
# kochia (Bassia scoparia) [23] = test: as above; details: 10 days
# Outline: as §1
# [24] = test system: barnyardgrass (Echinochloa crus-galli); test: as above; details: 10 days
# Outline: as §1
# [25] = test system: galium (catchweed bedstraw, Galium aparine); test: as above; details: 10 days
# Outline: as §1
# corn (Zea mays) [26] = test: as above; details: 10 days
# Outline: as §1
# [27] = test system: green foxtail (Setaria viridis); test: as above; details: 10 days
# Outline: as §1
# [28] = 31 g ai/ha, postemergence, 0 = no effect, 100 = complete control
# [29] = Postemergence, 125 g ai/ha, 0 is no effect, 100 is complete control
structure (smiles),measurement,setting,value
CC(C)OC(=O)C1C=CC(NC(=O)C2(C)CN(c3cc(F)cc(Cl)c3)C(=O)O2)C1 (stereo not shown) [Compound 4],"Oat, Wild plant response rating (0-100)",[1]; 31 g ai/ha,50
same,"Oat, Wild plant response rating (0 to 100 scale)",[1]; 125 g ai/ha,80
same,Ragweed plant response rating (0-100),[2]; 31 g ai/ha,0
same,Ragweed plant response rating (0 to 100 scale),[2]; 125 g ai/ha,0
same,Soybean plant response rating (0-100),soybean (Glycine max) [3]; 31 g ai/ha,0
same,Soybean plant response rating (0 to 100 scale),soybean (Glycine max) [3]; 125 g ai/ha,70
same,Blackgrass plant response rating (0-100),[4]; 31 g ai/ha,0
same,Blackgrass plant response rating (0 to 100 scale),[4]; 125 g ai/ha,60
same,"Ryegrass, Italian plant response rating (0-100)",[5]; 31 g ai/ha,50
same,"Ryegrass, Italian plant response rating (0 to 100 scale)",[5]; 125 g ai/ha,80
same,"Amaranth, Palmer plant response rating (0-100)",[6]; 31 g ai/ha,30
same,"Amaranth, Palmer plant response rating (0 to 100 scale)",[6]; 125 g ai/ha,100
same,Wheat plant response rating (0-100),[7]; 31 g ai/ha,40
same,Wheat plant response rating (0 to 100 scale),[7]; 125 g ai/ha,90
same,Kochia plant response rating (0-100),kochia (Bassia scoparia) [8]; 31 g ai/ha,40
same,Kochia plant response rating (0 to 100 scale),kochia (Bassia scoparia) [8]; 125 g ai/ha,90
same,Barnyardgrass plant response rating (0-100),[9]; 31 g ai/ha,50
same,Barnyardgrass plant response rating (0 to 100 scale),[9]; 125 g ai/ha,100
same,Corn plant response rating (0-100),corn (Zea mays) [10]; 31 g ai/ha,40
same,Corn plant response rating (0 to 100 scale),corn (Zea mays) [10]; 125 g ai/ha,70
same,"Foxtail, Green plant response rating (0-100)",[11]; 31 g ai/ha,0
same,"Foxtail, Green plant response rating (0 to 100 scale)",[11]; 125 g ai/ha,100
same,"Plant response rating, Ducksalad (0 to 100 scale, 0 is no effect and 100 is complete control)",[12],70
same,"Plant response rating, Rice (0 to 100 scale, 0 is no effect and 100 is complete control)",rice (Oryza sativa),20
same,"Plant response rating, Barnyardgrass (0 to 100 scale, 0 is no effect and 100 is complete control)",[13],90
same,"Plant response rating, Sedge, Umbrella (0 to 100 scale, 0 is no effect and 100 is complete control)",[14],95
same,"Oat, Wild plant response rating (0-100)",[15]; [28],90
same,"Oat, Wild plant response rating (0 to 100 scale)",[15]; [29],90
same,Ragweed plant response rating (0-100),[16]; [28],60
same,Ragweed plant response rating (0 to 100 scale),[16]; [29],80
same,Soybean plant response rating (0-100),soybean (Glycine max) [17]; [28],80
same,Soybean plant response rating (0 to 100 scale),soybean (Glycine max) [17]; [29],80
same,Horseweed plant response rating (0-100),[18]; [28],0
same,Horseweed plant response rating (0 to 100 scale),[18]; [29],70
same,Blackgrass plant response rating (0-100),[19]; [28],80
same,Blackgrass plant response rating (0 to 100 scale),[19]; [29],90
same,"Ryegrass, Italian plant response rating (0-100)",[20]; [28],60
same,"Ryegrass, Italian plant response rating (0 to 100 scale)",[20]; [29],90
same,"Amaranth, Palmer plant response rating (0-100)",[21]; [28],50
same,"Amaranth, Palmer / Pigweed, Palmer plant response rating (0 to 100 scale)",[21]; [29],90
same,Wheat plant response rating (0-100),[22]; [28],90
same,Wheat plant response rating (0 to 100 scale),[22]; [29],90
same,Kochia plant response rating (0-100),kochia (Bassia scoparia) [23]; [28],70
same,Kochia plant response rating (0 to 100 scale),kochia (Bassia scoparia) [23]; [29],80
same,Barnyardgrass plant response rating (0-100),[24]; [28],100
same,Barnyardgrass plant response rating (0 to 100 scale),[24]; [29],100
same,Galium plant response rating (0-100),[25]; [28],80
same,Galium plant response rating (0 to 100 scale),[25]; [29],90
same,Corn plant response rating (0-100),corn (Zea mays) [26]; [28],90
same,Corn plant response rating (0 to 100 scale),corn (Zea mays) [26]; [29],100
same,"Foxtail, Green plant response rating (0-100)",[27]; [28],90
same,"Foxtail, Green plant response rating (0 to 100 scale)",[27]; [29],90
